Measured values published in patent US4886813A, “Proline derivatives” (Otsuka Pharmaceutical Factory, Inc., priority 1985, dated 1989).

Molecular target: T1, angiotensin-converting enzyme (ACE) (Oryctolagus cuniculus, UniProt P12822)
T1 construct: enzyme solution prepared from rabbit lung acetone powder; tissue Sigma Chemical Co., Ltd., U.S.A; host or cells: rabbit lung (acetone powder)
T1 sequence (P12822 34-1310): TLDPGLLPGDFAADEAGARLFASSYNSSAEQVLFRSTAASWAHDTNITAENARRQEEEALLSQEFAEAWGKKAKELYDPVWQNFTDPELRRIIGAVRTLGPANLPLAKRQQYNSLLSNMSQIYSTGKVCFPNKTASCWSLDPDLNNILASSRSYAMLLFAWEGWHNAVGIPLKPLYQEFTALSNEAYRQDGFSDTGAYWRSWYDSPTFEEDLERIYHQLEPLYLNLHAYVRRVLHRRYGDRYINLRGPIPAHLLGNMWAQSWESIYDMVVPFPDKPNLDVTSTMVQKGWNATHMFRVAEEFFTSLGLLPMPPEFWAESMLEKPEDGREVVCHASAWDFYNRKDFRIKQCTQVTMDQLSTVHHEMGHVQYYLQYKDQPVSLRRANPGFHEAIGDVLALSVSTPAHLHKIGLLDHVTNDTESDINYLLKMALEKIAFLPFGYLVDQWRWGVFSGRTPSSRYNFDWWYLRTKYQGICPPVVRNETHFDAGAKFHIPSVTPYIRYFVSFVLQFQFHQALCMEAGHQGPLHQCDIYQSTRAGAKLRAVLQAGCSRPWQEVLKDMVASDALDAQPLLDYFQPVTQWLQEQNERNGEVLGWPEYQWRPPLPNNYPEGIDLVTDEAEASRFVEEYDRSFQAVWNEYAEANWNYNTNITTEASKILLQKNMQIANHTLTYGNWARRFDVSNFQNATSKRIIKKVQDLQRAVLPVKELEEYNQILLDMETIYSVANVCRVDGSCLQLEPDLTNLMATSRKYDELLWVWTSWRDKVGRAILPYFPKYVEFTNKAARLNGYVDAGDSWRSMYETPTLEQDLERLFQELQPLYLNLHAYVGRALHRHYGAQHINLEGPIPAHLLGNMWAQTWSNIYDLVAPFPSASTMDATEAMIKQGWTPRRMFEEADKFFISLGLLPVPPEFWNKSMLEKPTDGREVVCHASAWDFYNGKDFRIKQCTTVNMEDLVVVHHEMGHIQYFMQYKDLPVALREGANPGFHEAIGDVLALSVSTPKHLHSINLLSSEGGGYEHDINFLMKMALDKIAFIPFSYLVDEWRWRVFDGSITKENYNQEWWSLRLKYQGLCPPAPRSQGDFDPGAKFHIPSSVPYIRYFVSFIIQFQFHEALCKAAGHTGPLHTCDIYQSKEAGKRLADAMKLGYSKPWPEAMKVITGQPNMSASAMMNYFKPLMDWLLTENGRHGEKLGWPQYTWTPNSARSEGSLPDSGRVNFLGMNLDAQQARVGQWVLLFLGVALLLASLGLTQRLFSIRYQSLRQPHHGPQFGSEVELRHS
Test: Inhibitory activity against angiotensin-converting enzyme (ACE)
Assay type: biochemical
Conditions: enzyme from rabbit lung acetone powder; substrate hippuryl-histidyl-leucine; 37° C.; preincubation 10 minutes, reaction 45 minutes
Experimental: A 100 μl quantity of an enzyme solution prepared from rabbit lung acetone powder (product of Sigma Chemical Co., Ltd., U.S.A.) was mixed with 100 μl of a sample solution. The mixture was gently shaken at 37° C. for 10 minutes. To the reaction mixture was added 100 μl of a solution containing 6.69 mM of hippuryl-histidyl-lecuine (product of Peptide Institute, Inc., Japan) as a substrate. The mixture was reacted at 37° C. for 45 minutes while being shaken. The reaction was terminated by addition of 200 μl of a 1N sulfuric acid to the reaction mixture. Sodium chloride (saturation amount) and diethyl ether (2 ml) were added to the reaction mixture to extract the hippuric acid formed by the reaction. The resulting mixture was vigorously shaken for 15 minutes and centrifuged at 2000 r.p.m. for 5 minutes. A 1.5 ml quantity of the ether layer was separated. After the solvent was distilled off, the residue was redissolved in 1.5 ml of distilled water and the absorbance of 228 nm was measured. A control was prepared by repeating the same procedure as above except that […] of distilled water was used in place of the sample solution.
The inhibitory activity was calculated by deducting the absorbance value of the residue formed by addition of the sample solution from that of the control and the resulting value was divided by the absorbance value of the control and multipled by 100, thereby giving a percent inhibition. The inhibitory activity was expressed as IC50, i.e., the concentration of the same sample solution in the reaction mixture in which concentration 50% inhibition is achieved.

Row | IC50 [nM] | SMILES
1 | 5.21 | CC(N[C@@H](CSC1(C)CCCCC1)C(=O)O)C(=O)N1CCC[C@H]1C(=O)O (stereo partly drawn)
2 | 0.687 | CC(N[C@@H](CSC1Cc2ccccc2C1)C(=O)O)C(=O)N1CCC[C@H]1C(=O)O (stereo partly drawn) [Compound 2]
3 | 1.02 | CC(N[C@@H](CSC1CCCC1)C(=O)O)C(=O)N1CCC[C@H]1C(=O)O (stereo partly drawn) [Compound 3]
4 | 61.1 | CC(N[C@@H](CSCC(=O)NC1CCCC1)C(=O)O)C(=O)N1CCC[C@H]1C(=O)O (stereo partly drawn) [Compound 4]
5 | 342 | CC(N[C@@H](CSCC(=O)NCc1ccccc1)C(=O)O)C(=O)N1CCC[C@H]1C(=O)O (stereo partly drawn) [Compound 5]
6 | 443 | CC(N[C@@H](CSCC(=O)N1CCCCC1)C(=O)O)C(=O)N1CCC[C@H]1C(=O)O (stereo partly drawn) [Compound 6]
7 | 24.1 | CCCCCCCSC[C@H](NC(C)C(=O)N1CCC[C@H]1C(=O)NC(Cc1ccccc1)C(=O)O)C(=O)O (stereo partly drawn) [Compound 7]
8 | 56.3 | CCCCCCCSC[C@H](NC(C)C(=O)N1CCC[C@H]1C(=O)NC(C)C(=O)O)C(=O)O (stereo partly drawn) [Compound 8]
9 | 33.5 | CCCCCCCSC[C@H](NC(C)C(=O)N1CCC[C@H]1C(=O)NC(C(=O)O)C(C)C)C(=O)O (stereo partly drawn) [Compound 9]
